Measurements published in patent US7285543B2, “Purine inhibitors of fructose-1,6-bisphosphatase” (Metabasis Therapeutics, Inc., priority 1997, dated 2007).

How the values were obtained:
human liver FBPase = biological target: T1, human liver FBPase (Homo sapiens, UniProt P09467); assay: Inhibition of human liver FBPase (coupled spectrophotometric assay); format: biochemical; conditions: for inhibition of hlFBPase (FIG. 2): result in words
T1 construct: made in house; host or cells: E. coli BL21
T1 sequence (P09467 2-338 limits assumed): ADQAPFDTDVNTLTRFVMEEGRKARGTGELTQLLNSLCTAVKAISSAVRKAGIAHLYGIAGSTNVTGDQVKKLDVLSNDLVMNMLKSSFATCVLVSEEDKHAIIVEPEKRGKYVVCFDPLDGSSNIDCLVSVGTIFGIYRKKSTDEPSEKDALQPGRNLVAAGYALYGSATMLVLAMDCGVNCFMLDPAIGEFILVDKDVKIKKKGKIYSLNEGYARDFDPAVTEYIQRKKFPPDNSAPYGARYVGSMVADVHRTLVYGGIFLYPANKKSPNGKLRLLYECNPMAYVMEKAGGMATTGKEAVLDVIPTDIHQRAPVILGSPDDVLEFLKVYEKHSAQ

mouse liver FBPase = biological target: T2, mouse liver FBPase (Mus musculus, UniProt Q9QXD6); assay: In vitro inhibition of mouse liver FBPase; format: biochemical
T2 construct: This partially purified fraction was used for enzyme assays; from tissue; host or cells: mouse liver
T2 sequence (Q9QXD6 2-338 limits assumed): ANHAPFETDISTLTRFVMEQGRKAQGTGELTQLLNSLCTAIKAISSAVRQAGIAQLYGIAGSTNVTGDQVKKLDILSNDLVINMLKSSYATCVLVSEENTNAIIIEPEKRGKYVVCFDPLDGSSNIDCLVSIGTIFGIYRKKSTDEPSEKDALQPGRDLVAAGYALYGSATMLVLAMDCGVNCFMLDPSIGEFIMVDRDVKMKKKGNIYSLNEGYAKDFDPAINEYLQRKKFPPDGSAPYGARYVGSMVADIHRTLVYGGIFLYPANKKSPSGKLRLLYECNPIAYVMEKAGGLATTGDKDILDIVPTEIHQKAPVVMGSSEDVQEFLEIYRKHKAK
Protocol: (§1) Mouse liver FBPase was obtained by homogenizing freshly isolated mouse liver in 100 mM Tris-HCl buffer, pH 7.4, containing 1 mM EGTA, and 10% glycerol. […] This fraction was redissolved in the homogenization buffer and desalted on a PD-10 gel filtration column (Biorad) eluted with same. This partially purified fraction was used for enzyme assays. Both rat liver and mouse liver FBPase were assayed as described for human liver FBPase.

rat hepatocytes = assay: Inhibition of gluconeogenesis (glucose production from lactate/pyruvate) in rat hepatocytes; format: cell-based; conditions: from lactate/pyruvate, isolated rat hepatocytes
Protocol: Hepatocytes were prepared from overnight fasted Sprague-Dawley rats (250-300 g) according to the procedure of Berry and Friend (Berry, M. N., Friend, D. S., J. Cell. Biol. 1969, 43, 506-520) as modified by Groen (Groen, […]., Eur. J. Biochem. 1982, 122, 87-93). […] Incubations were carried out in a 95% oxygen, 5% carbon dioxide atmosphere in closed, 50-mL Falcon tubes submerged in a rapidly shaking water bath (37° C.). After 1 hour, an aliquot (0.25 mL) was removed, transferred to an Eppendorf tube and centrifuged. 50 μl of supernatant was then assayed for glucose content using a Sigma Glucose Oxidase kit as per the manufacturer's instructions.

rat liver FBPase = biological target: T3, rat liver FBPase (Rattus norvegicus, UniProt P19112); assay: In vitro inhibition of rat liver FBPase; format: biochemical
T3 construct: made in house; host or cells: E. coli BL21
T3 sequence (P19112 2-363 limits assumed): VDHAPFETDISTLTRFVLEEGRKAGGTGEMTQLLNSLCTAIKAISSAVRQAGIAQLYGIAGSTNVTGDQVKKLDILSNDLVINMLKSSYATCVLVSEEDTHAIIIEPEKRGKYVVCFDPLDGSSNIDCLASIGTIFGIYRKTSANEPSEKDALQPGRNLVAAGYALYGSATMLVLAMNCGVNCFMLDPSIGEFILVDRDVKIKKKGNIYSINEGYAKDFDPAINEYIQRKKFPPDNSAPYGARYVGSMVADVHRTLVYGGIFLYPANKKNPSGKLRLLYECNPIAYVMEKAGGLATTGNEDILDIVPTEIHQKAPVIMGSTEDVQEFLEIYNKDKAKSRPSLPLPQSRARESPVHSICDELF
Protocol: as §1

| SMILES | IC50 (human liver FBPase) | IC50 (mouse liver FBPase) | IC50 (rat liver FBPase) | inhibition of hlFBPase (FIG. 2) (human liver FBPase) | IC50 (rat hepatocytes; Hepatocyte) | IC50 (rat hepatocytes) |
| --- | --- | --- | --- | --- | --- | --- |
| CC(C)(C)Cn1c(COCP(=O)(O)O)nc2c(N)ncnc21 [Compound 5.5, N^9-neopentyl-8-(phosphonomethoxymethyl)-adenine] | 10 µM | > 20 µM | > 20 µM | – | – | – |
| Nc1ncnc2c1nc(NCCP(=O)(O)O)n2[C@@H]1O[C@H](CO)[C@@H](O)[C@H]1O [Compound 4.1, 8-(2-phosphonoethylamino)-adenosine] | 100 µM | > 20 µM | > 20 µM | – | – | – |
| CC(C)(C)Cn1c(-c2oc(P(=O)(O)O)c(Cl)c2Cl)nc2c(N)ncnc21 [Compound 12.1, 6-amino-N^9-neopentyl-8-(2-(3,4-dichloro-5-phosphono)furanyl)purine] | 13 µM | > 100 µM | – | – | – | – |
| Nc1ncnc2c1nc(SCP(=O)(O)O)n2CCC1CCCCC1 [Compound 8.1, N^9-(2-cyclohexylethyl)-8-(phosphonomethylthio)adenine] | 23 µM | > 20 µM | > 20 µM | – | – | – |
| CN(C)c1ncnc2c1nc(-c1ccc(P(=O)(O)O)o1)n2CCc1ccccc1 [Compound 10.1, 6-Dimethylamino-N^9-phenethyl-8-(2-(5-phosphono)furanyl)purine] | 50 µM | > 20 µM | > 20 µM | – | – | – |
| CCn1c(-c2ccc(P(=O)(O)O)o2)nc2c(N)ncnc21 [Compound 2.5, N^9-ethyl-8-(2-(5-phosphono)furanyl)adenine] | – | – | – | dose-dependent inhibition | – | – |
| CC(C)Cn1c(-c2ccc(P(=O)(O)O)o2)nc2c(N)ncnc21 [Compound 2.6, N^9-isobutyl-8-(2-(5-phosphono)furanyl)adenine] | – | – | – | – | – | 18 µM |

The next lines start with results.

| IC50 (human liver FBPase) | IC50 (mouse liver FBPase) | IC50 (rat liver FBPase) | inhibition of hlFBPase (FIG. 2) (human liver FBPase) | SMILES | IC50 (rat hepatocytes; Hepatocyte) | IC50 (rat hepatocytes) |
| --- | --- | --- | --- | --- | --- | --- |
| 2 µM | > 20 µM | – | – | Nc1ncnc2c1nc(-c1ccc(P(=O)(O)O)o1)n2C1CCCC1 [Compound 2.10, N^9-cyclopentyl-8-(2-(5-phosphono)furanyl)adenine] | 24 µM | – |
| 1.4 µM | > 20 µM | > 20 µM | – | CC1(C)C=CCC(C)(Cn2c(-c3ccc(P(=O)(O)O)o3)nc3c(N)ncnc32)C1 (centres unmarked) [Compound 2.16, N^9-(1,5,5-trimethyl-3-cyclohexenyl)methyl-8-(2-(5-phosphono)furanyl)-adenine] | 12 µM | – |
| 3.3 µM | > 20 µM | > 20 µM | – | Nc1ncnc2c1nc(-c1ccc(P(=O)(O)O)o1)n2Cc1ccc2ccccc2c1 [Compound 2.3, N^9-(2-naphthylmethyl)-8-(2-(5-phosphono)furanyl)adenine] | – | – |
| 0.7 µM | > 20 µM | – | – | CSc1nc(N)c2nc(-c3ccc(P(=O)(O)O)o3)n(CC(C)C)c2n1 [Compound 11.1, 6-amino-N^9-isobutyl-2-methylthio-8-(2-(5-phosphono)-furanyl)purine] | – | – |
| 1 µM | – | – | dose-dependent inhibition | Nc1ncnc2c1ncn2[C@@H]1O[C@H](COP(=O)(O)O)[C@@H](O)[C@H]1O [AMP, reference compound] | – | – |
| 0.9 µM | > 20 µM | > 20 µM | – | CC(C)(CCl)Cn1c(-c2ccc(P(=O)(O)O)o2)nc2c(N)ncnc21 [Compound 2.14, N^9-(1-(3-chloro-2,2-dimethyl)propyl)-8-(2-(5-phosphono)-furanyl)adenine] | 7.5 µM | – |
| 4.5 µM | > 20 µM | – | dose-dependent inhibition | CC(C)(CO)Cn1c(-c2ccc(P(=O)(O)O)o2)nc2c(N)ncnc21 [Compound 2.13, N^9-(1-(3-hydroxyl-2,2-dimethyl)propyl)-8-(2-(5-phosphono)-furanyl)adenine] | 50 µM | – |
